Consider eleven compounds from patent publication US8691817B2, “Sulfonic amide and sulfoximine-substituted diaryl-dihydropyrimidinones and usage thereof” (Bayer Intellectual Property GmbH, priority 2009, dated 2014).

The Solubility is the concentration that dissolves in the medium under given conditions. What is called IC50 is the point on the concentration scale where inhibition reaches its midpoint. As a reminder, the solubility is the concentration that dissolves in the medium under given conditions.

Converted amounts (≈) assume the structure as drawn.

The subject of one series is rat hepatocytes. Briefly: Hepatocyte assay to determine the metabolic stability. It is filed as in vitro ADME. The conditions noted are these: for Fmax, maximum possible bioavailability after oral administration (well-stirred): rat. The method, then: Seven samples of the incubation solution are taken in a fixed time pattern for the […] analysis in order to determine the half-life (i.e. the degradation) of the compound in each case. Various clearance parameters (CL) and Fmax values are calculated from this half-life (see below).
The Cl and Fmax values represent a measure of the phase 1 and phase 2 metabolism of the compounds in the hepatocytes. In order to minimize the influence of the organic solvent on the enzymes in the incubation mixtures, this concentration is generally limited to 1% (acetonitrile) or 0.1% (DMSO).
A cell count for hepatocytes in the liver of 1.1*10^8 cells/g of liver is used for calculation for all species and breeds.
The calculated parameters and their meaning are: • Fmax well-stirred [%] maximum possible bioavailability after oral administration • Calculation: (1-CLblood well-stirred/QH)*100 • CLblood well-stirred [L/(h*kg)] calculated blood clearance (well-stirred model) • Calculation: (QH*CL′intrinsic)/(QH+CL′intrinsic) • CL′intrinsic [ml/(min*kg] maximum ability of the liver (of the hepatocytes) to metabolize a compound (on the assumption that the hepatic blood flow is not rate-limiting) • Calculation: CL′intrinsic, apparent*species-specific hepatocyte count [1.1* 10^8/g of liver]*species-specific liver weight [g/kg] • CL′intrinsic, apparent [ml/(min*mg)] normalizes the elimination constant by dividing it by the hepatocyte cell count x (x*10^6/ml) employed • Calculation: ke1 [1/min]/(cell count [x*10^6]/incubation volumes [ml]) • (QH=species-specific hepatic blood flow).

A short description of series [1]: Determination of the solubility in PBS buffer pH 6.5. It is filed as physicochemical. The conditions noted are these: 20° C. As for the experimental part:
B-7. Determination of the Solubility Reagents Required: • PBS buffer pH 6.5: 90.00 g of NaCl p.a. […] Preparation of the Starting Solution (Original Solution):
10 μl of the original solution are transferred into a microtiter plate, and 1000 μl of PBS buffer pH 6.5 are added.
From each of the sample solutions, 100 μl of the supernatant are removed and diluted 1:5 and 1:100 with DMSO. From each dilution, a sample is transferred into a vessel suitable for HPLC analysis.
The samples are analysed by RP-HPLC. Quantification is carried out using a two-point calibration curve of the test compound in DMSO. The solubility is expressed in mg/liter. Analysis sequence: 1) calibration solution […]; 2) calibration solution 20 μg/ml; 3) sample solution 1:5; 4) sample solution 1:100.

Series [2] deals with T1, human neutrophil elastase (HNE) (Homo sapiens, UniProt P08246).
T1 construct: purchased Serva, Heidelberg
T1 sequence (P08246 30-267): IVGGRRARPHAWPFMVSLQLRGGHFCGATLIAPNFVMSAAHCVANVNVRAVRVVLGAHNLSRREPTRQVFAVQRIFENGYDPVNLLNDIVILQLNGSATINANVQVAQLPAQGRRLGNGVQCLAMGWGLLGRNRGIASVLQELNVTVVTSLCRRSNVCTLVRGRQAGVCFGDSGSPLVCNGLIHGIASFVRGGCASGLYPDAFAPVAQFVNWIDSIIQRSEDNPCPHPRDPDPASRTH
Description: In vitro HNE inhibition assay. The following applies: HNE concentration of 80 pM; substrate MeOSuc-Ala-Ala-Pro-Val-AMC; 37° C., 2 hours. It is filed as biochemical. The method, then:
The potency of the compounds of the invention is ascertained in an in vitro inhibition assay. The HNE-mediated amidolytic cleavage of a suitable peptide substrate leads in this connection to an increase in the fluorescent light. The signal intensity of the fluorescent light is directly proportional to the enzyme activity.
Enzyme (80 pM HNE; from Serva, Heidelberg) and substrate (20 μM MeOSuc-Ala-Ala-Pro-Val-AMC; from Bachem, Weil am Rhein) are incubated in an assay volume of in total 50 μl of assay buffer (0.1 M HEPES pH 7.4, 0.5 M NaCl, 0.1% w/v BSA, 1% v/v DMSO) in a 384-well microtiter plate in the presence and absence of the test substance at 37° C. for 2 hours.

With `CC1=C(C#N)[C@@H](c2ccc(C#N)cc2S(C)(=N)=O)N(C)C(=O)N1c1cccc(C(F)(F)F)c1` (mixture of isomers) [Example 38, (SS)-(4S)-4-[4-Cyano-2-(S-methylsulfonimidoyl)phenyl]-3,6-dimethyl-2-oxo-1-[3-(trifluoromethyl)phenyl]-1,2,3,4-tetrahydropyrimidine-5-carbonitrile or (RS)-(4S)-4-[4-cyano-2-(S-methylsulfonimidoyl)phenyl]-3,6-dimethyl-2-oxo-1-[3-(trifluoromethyl)phenyl]-1,2,3,4-tetrahydropyrimidine-5-carbonitrile], in the series with rat hepatocytes (after incubation with rat hepatocytes), the “CLblood, calculated blood clearance (well-stirred)” value (“CLblood, calculated blood clearance” for short) is 0 mL/min/kg. The compound further had a Solubility in series [1] (24 hours) of 300 µg/mL (≈ 634 µM). For the compound `CC1=C(C#N)[C@@H](c2ccc(C#N)cc2S(C)(=N)=O)NC(=O)N1c1cccc(C(F)(F)F)c1` (mixture of isomers) [Example 41, (SS)-(4S)-4-[4-Cyano-2-(S-methylsulfonimidoyl)phenyl]-6-methyl-2-oxo-1-[3-(trifluoromethyl)phenyl]-1,2,3,4-tetrahydropyrimidine-5-carbonitrile or (RS)-(4S)-4-[4-cyano-2-(S-methylsulfonimidoyl)phenyl]-6-methyl-2-oxo-1-[3-(trifluoromethyl)phenyl]-1,2,3,4-tetrahydropyrimidine-5-carbonitrile], the “CLblood, calculated blood clearance” value in the series on rat hepatocytes (hepatocytes) was 0 mL/min/kg. Also, the “Fmax, maximum possible bioavailability after oral administration (well-stirred)” value (from here on “Fmax, maximum possible bioavailability”) in the series on rat hepatocytes is recorded as 100%. The same compound showed an IC50 in series [2] of 0.9 nM. Turning to `CC1=C(C#N)[C@@H](c2ccc(C#N)cc2S(N)(=O)=O)NC(=O)N1c1cccc(C(F)(F)F)c1` [Example 1, 5-Cyano-2-{(4S)-5-cyano-6-methyl-2-oxo-1-[3-(trifluoromethyl)phenyl]-1,2,3,4-tetrahydropyrimidin-4-yl}benzenesulfonamide], the “CLblood, calculated blood clearance” value in the series with rat hepatocytes (hepatocytes) is 1.7 mL/min/kg. Also, the “Fmax, maximum possible bioavailability” value in the series on rat hepatocytes was 97%. The compound further returned a 50% inhibitory concentration (IC50) in series [2] of 0.4 nM. With `CNS(=O)(=O)c1cc(C#N)ccc1[C@H]1NC(=O)N(c2cccc(C(F)(F)F)c2)C(C)=C1C#N` [Example 2, 5-Cyano-2-{(4S)-5-cyano-6-methyl-2-oxo-1-[3-(trifluoromethyl)phenyl]-1,2,3,4-tetrahydropyrimidin-4-yl}-N-methylbenzenesulfonamide], the “CLblood, calculated blood clearance” value in the series with rat hepatocytes (hepatocytes) was 31.7 mL/min/kg. For the same compound, the “Fmax, maximum possible bioavailability” value in the series on rat hepatocytes was 54%. Further, the IC50 in series [2] was less than 0.3 nM. Compound `CC1=C(C#N)[C@@H](c2ccc(C#N)cc2S(=O)(=O)N(C)C)NC(=O)N1c1cccc(C(F)(F)F)c1` [Example 3, 5-Cyano-2-{(4S)-5-cyano-6-methyl-2-oxo-1-[3-(trifluoromethyl)phenyl]-1,2,3,4-tetrahydropyrimidin-4-yl}-N,N-dimethylbenzenesulfonamide] returned an IC50 in series [2] of less than 0.3 nM. On the same count and under the same terms, next, `CC1=C(C#N)[C@@H](c2ccc(C#N)cc2S(=O)(=O)N2CCOCC2)NC(=O)N1c1cccc(C(F)(F)F)c1` [Example 4, (4S)-4-[4-Cyano-2-(morpholin-4-ylsulfonyl)phenyl]-6-methyl-2-oxo-1-[3-(trifluoromethyl)phenyl]-1,2,3,4-tetrahydropyrimidine-5-carbonitrile]: less than 0.3 nM; `CC1=C(C#N)[C@@H](c2ccc(C#N)cc2S(N)(=O)=O)N(C)C(=O)N1c1cccc(C(F)(F)F)c1` [Example 10, 5-Cyano-2-{(4S)-5-cyano-3,6-dimethyl-2-oxo-1-[3-(trifluoromethyl)phenyl]-1,2,3,4-tetrahydropyrimidin-4-yl}benzenesulfonamide]: less than 0.3 nM. In series [1] (aqueous buffer, kinetic from dmso stock), `CC1=C(C#N)[C@@H](c2ccc(C#N)cc2S(=O)(=O)NCCO)N(C)C(=O)N1c1cccc(C(F)(F)F)c1` [Example 11, 5-Cyano-2-{(4S)-5-cyano-3,6-dimethyl-2-oxo-1-[3-(trifluoromethyl)phenyl]-1,2,3,4-tetrahydropyrimidin-4-yl}-N-(2-hydroxyethyl)benzenesulfonamide] gave a solubility at 24 h of 300 µg/mL (≈ 577 µM). In series [2], this compound registered an IC50 of less than 0.3 nM.

As for `CC1=C(C#N)[C@@H](c2ccc(C#N)cc2S(=O)(=O)NCC(N)=O)N(C)C(=O)N1c1cccc(C(F)(F)F)c1` [Example 13, N^2-[(5-Cyano-2-{(4S)-5-cyano-3,6-dimethyl-2-oxo-1-[3-(trifluoromethyl)phenyl]-1,2,3,4-tetrahydropyrimidin-4-yl}phenyl)sulfonyl]glycinamide], in the series on rat hepatocytes (hepatocytes), the “CLblood, calculated blood clearance” value was 31.7 mL/min/kg. Besides, the “Fmax, maximum possible bioavailability” value in the series with rat hepatocytes is on record as 54%. The IC50 in series [2] was less than 0.3 nM. For `CC1=C(C#N)[C@@H](c2ccc(C#N)cc2S(=O)(=O)NCCCN2CCCC2=O)NC(=O)N1c1cccc(C(F)(F)F)c1` [Example 14], the IC50 in series [2] came to 4.5 nM. On the same count and under the same terms, as for `CC1=C(C#N)[C@@H](c2ccc(C#N)cc2S(=O)(=O)NCC2CCN(C)C2)NC(=O)N1c1cccc(C(F)(F)F)c1` (stereo partly drawn) [Example 21, 5-cyano-2-{(4S)-5-cyano-6-methyl-2-oxo-1-[3-(trifluoromethyl)phenyl]-1,2,3,4-tetrahydropyrimidin-4-yl}-N-[(1-methylpyrrolidin-3-yl)methyl]-benzenesulfonamide], the figure is 0.7 nM.
